Test results from patent US11331327B2, “Antibacterial use of halogenated salicylanilides” (UNION therapeutics A/S, priority 2014, dated 2022).

Test system: S. aureus clinical isolates and S. aureus ATCC 29213
Experiment: MIC assay according to CLSI criteria, Example 2, S. aureus strains
Type: cell-based, Staphylococcus aureus
Details: Staphylococcus aureus
How it was run: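 Wells received roughly 5×10^5 S. aureus cells taken in exponential growth, in cation-adjusted MH broth. Plates held aerobically at 37° C for 18 hours.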

Measured: MIC

CN[C@H](CC(C)C)C(=O)N[C@H]1C(=O)N[C@@H](CC(N)=O)C(=O)N[C@H]2C(=O)N[C@H]3C(=O)N[C@H](C(=O)N[C@H](C(=O)O)c4cc(O)cc(O)c4-c4cc3ccc4O)[C@H](O)c3ccc(c(Cl)c3)Oc3cc2cc(c3O[C@@H]2O[C@H](CO)[C@@H](O)[C@H](O)[C@H]2O[C@H]2C[C@](C)(N)[C@H](O)[C@H](C)O2)Oc2ccc(cc2Cl)[C@H]1O [Vancomycin]
0.5 µg/mL: ATCC 29213 / MRSA, strain MRSA 22 | ATCC 29213 / MRSA, strain MRSA 47 | ATCC 29213 / MRSA, strain MRSA 48 | ATCC 29213 / MRSA, strain MRSA 55 | ATCC 29213 / MRSA, strain MRSA 60
2 µg/mL: ATCC 29213 / MRSA, strain MRSA 15 | ATCC 29213 / MRSA, strain MRSA 17 | ATCC 29213 / MRSA, strain MRSA 24 | ATCC 29213 / MRSA, strain MRSA 49 | ATCC 29213 / MRSA, strain MRSA 54 | ATCC 29213 / MRSA, strain MRSA 61 | ATCC 29213 / MRSA, strain MRSA 62 | ATCC 29213 / MRSA, strain MRSA 74 | ATCC 29213 / MRSA, strain MRSA 77 | ATCC 29213 / MRSA, strain MRSA 82 | ATCC 29213 / MRSA, strain MRSA 84 | ATCC 29213 / MRSA, strain MRSA 86 | ATCC 29213 / MRSA, strain MRSA 93 | ATCC 29213 / MRSA, strain MRSA 94 | ATCC 29213 / MRSA, strain MRSA 95 | ATCC 29213 / MRSA, strain MRSA 102 | ATCC 29213 / MRSA, strain MRSA 107 | ATCC 29213 / NEWMAN, strain Newman
1 µg/mL: ATCC 29213 / MRSA, strain MRSA 16 | ATCC 29213 / MRSA, strain MRSA 18 | ATCC 29213 / MRSA, strain MRSA 19 | ATCC 29213 / MRSA, strain MRSA 20 | ATCC 29213 / MRSA, strain MRSA 21 | ATCC 29213 / MRSA, strain MRSA 23 | ATCC 29213 / MRSA, strain MRSA 25 | ATCC 29213 / MRSA, strain MRSA 26 | ATCC 29213 / MRSA, strain MRSA 27 | ATCC 29213 / MRSA, strain MRSA 27b | ATCC 29213 / MRSA, strain MRSA 28 | ATCC 29213 / MRSA, strain MRSA 29 | ATCC 29213 / MRSA, strain MRSA 30 | ATCC 29213 / MRSA, strain MRSA 31 | ATCC 29213 / MRSA, strain MRSA 32 | ATCC 29213 / MRSA, strain MRSA 33 | ATCC 29213 / MRSA, strain MRSA 34 | ATCC 29213 / MRSA, strain MRSA 35 | ATCC 29213 / MRSA, strain MRSA 36 | ATCC 29213 / MRSA, strain MRSA 37 | ATCC 29213 / MRSA, strain MRSA 38 | ATCC 29213 / MRSA, strain MRSA 39 | ATCC 29213 / MRSA, strain MRSA 40 | ATCC 29213 / MRSA, strain MRSA 41 | ATCC 29213 / MRSA, strain MRSA 42 | ATCC 29213 / MRSA, strain MRSA 43 | ATCC 29213 / MRSA, strain MRSA 44 | ATCC 29213 / MRSA, strain MRSA 45 | ATCC 29213 / MRSA, strain MRSA 46 | ATCC 29213 / MRSA, strain MRSA 50 | ATCC 29213 / MRSA, strain MRSA 51 | ATCC 29213 / MRSA, strain MRSA 52 | ATCC 29213 / MRSA, strain MRSA 53 | ATCC 29213 / MRSA, strain MRSA 56 | ATCC 29213 / MRSA, strain MRSA 57 | ATCC 29213 / MRSA, strain MRSA 58 | ATCC 29213 / MRSA, strain MRSA 59 | ATCC 29213 / MRSA, strain MRSA 63 | ATCC 29213 / MRSA, strain MRSA 64 | ATCC 29213 / MRSA, strain MRSA 65 | ATCC 29213 / MRSA, strain MRSA 66 | ATCC 29213 / MRSA, strain MRSA 67 | ATCC 29213 / MRSA, strain MRSA 68 | ATCC 29213 / MRSA, strain MRSA 69 | ATCC 29213 / MRSA, strain MRSA 70 | ATCC 29213 / MRSA, strain MRSA 71 | ATCC 29213 / MRSA, strain MRSA 72 | ATCC 29213 / MRSA, strain MRSA 73 | ATCC 29213 / MRSA, strain MRSA 75 | ATCC 29213 / MRSA, strain MRSA 76 | ATCC 29213 / MRSA, strain MRSA 78 | ATCC 29213 / MRSA, strain MRSA 79 | ATCC 29213 / MRSA, strain MRSA 80 | ATCC 29213 / MRSA, strain MRSA 81 | ATCC 29213 / MRSA, strain MRSA 83 | ATCC 29213 / MRSA, strain MRSA 85 | ATCC 29213 / MRSA, strain MRSA 87 | ATCC 29213 / MRSA, strain MRSA 88 | ATCC 29213 / MRSA, strain MRSA 89 | ATCC 29213 / MRSA, strain MRSA 90 | ATCC 29213 / MRSA, strain MRSA 91 | ATCC 29213 / MRSA, strain MRSA 92 | ATCC 29213 / MRSA, strain MRSA 96 | ATCC 29213 / MRSA, strain MRSA 97 | ATCC 29213 / MRSA, strain MRSA 98 | ATCC 29213 / MRSA, strain MRSA 99 | ATCC 29213 / MRSA, strain MRSA 100 | ATCC 29213 / MRSA, strain MRSA 101 | ATCC 29213 / MRSA, strain MRSA 103 | ATCC 29213 / MRSA, strain MRSA 104 | ATCC 29213 / MRSA, strain MRSA 105 | ATCC 29213 / MRSA, strain MRSA 106 | ATCC 29213 / MRSA, strain MRSA 108 | ATCC 29213 / MRSA, strain MRSA 109 | ATCC 29213 / MRSA, strain MRSA 110 | ATCC 29213 / MRSA, strain MRSA 111 | ATCC 29213 / MRSA, strain MRSA 112 | ATCC 29213 / MRSA, strain MRSA 113 | ATCC 29213 / MSSA, strain MSSA 01 | ATCC 29213 / MSSA, strain MSSA 02
